Literature values, collected in patent publication US10828278B2, “Tesofensine and beta blocker combination formulations” (SANIONA A/S, priority 2015, dated 2020).

Key:
[1] = for half-life: in vivo
[2] = in vivo
[3] = long-term treatment, corrected for placebo and diet effects, obese patients

Compound	half-life [1]	sagittal diameter [2]	waist circumference [2]	weight loss [3]	serum half-life ([1]; serum)
COc1ccccc1OCCNCC(O)COc1cccc2[nH]c3ccccc3c12 (racemic) [carvedilol, (±)-[3-(9H-carbazol-4-yloxy)-2-hydroxypropyl][2-(2-methoxyphenoxy)ethyl]amine]	7 to 10 h				
CCOC[C@@H]1[C@@H](c2ccc(Cl)c(Cl)c2)C[C@@H]2CC[C@H]1N2C [Tesofensine, (1R,2R,3S,5S)-3-(3,4-dichlorophenyl)-2-(ethoxymethyl)-8-methyl-8-azabicyclo[3.2.1]octane]		significantly decreases	significantly decreases	about 10%	nine
COCCc1ccc(OCC(O)CNC(C)C)cc1 (stereo not drawn) [metoprolol, 1-(Isopropylamino)-3-[4-(2-methoxyethyl)-phenoxy]-propan-2-ol]	3 to 4 h				
